The values below are quoted from earlier work in patent US20250049677A1, “Oxa-Macrocyclic Musk as Fragrance Compounds” (Symrise AG, priority 2021, published 2025).

For data set [1] the following is noted: background statement on prior art.
For data set [2] the following is noted: background statement on prior art. This is another data set of the same source.

Structures are written as SMILES.

For `C[C@@H]1CCCCCCCCCCCCC(=O)C1` [Muscone, (R)-3-methylcyclopentadecanone], the Solubility in water result in data set [1] is “only very slightly soluble in water”. For the same compound, the Biodegradability result in data set [2] is listed as “badly biodegradable”.
